Experimental data taken from US6841519B1, “Isoxazoline derivatives and herbicides containing the same as the active ingredient” (Kumiai Chemical Industry Co., Ltd., priority 1999, dated 2005).

Assays:
Assay type in all cases: in vivo
[1] = tested on: Echinochloa oryzicola Vasing. (Eo); assay: Test for crop selectivity by paddy field soil treatment (Test Example 4), herbicidal effect on Eo; conditions: 100 g/10 a active ingredient, 21st day
Procedure: (§1) [table] <Test Example 4> Test For Crop Selectivity By Paddy Field Soil Treatment A paddy field soil was filled in a plastic pot of 100 cm^2 and subjected to puddling. Seeds of Echinochloa oryzicola Vasing. (Eo) were sowed; two-leaf stage seedlings of rice (Or) were transplanted in a depth of 2 cm; and water was filled in a depth of 3 cm. Next day, wettable powders produced in accordance with the Formulation 1 were diluted with water and dropped on the water surface. The application amount of each wettable powder was 100 g per 10 ares in terms of the active ingredient. Then, breeding was made in a greenhouse. At the 21st day from the treatment, the phytotoxicity and herbicidal effect of each wettable powder were examined in accordance with the standard shown in Table 40.

[2] = tested on: rice (Or); assay: Test for crop selectivity by paddy field soil treatment (Test Example 4), phytotoxicity to rice; conditions: transplanted two-leaf stage rice, 100 g/10 a active ingredient, 21st day
Procedure: as §1

[3] = tested on: Echinochloa oryzicola Vasing. (Eo); assay: Test for herbicidal effect by paddy field soil treatment (Test Example 1); conditions: application amount (active ingredient) 100 g/10 a, examined at the 21st day from the treatment, index per Table 40
Outline: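 Scored on a standard scale at day 21 in the greenhouse: herbicidal effect of wettable powder applied to flooded water (3 cm depth) at 100 g a.i./10 ares, one day after sowing Eo into puddled paddy soil.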

[4] = tested on: Echinochloa crus-galli (L.) Beauv. var. crusgall (Ec); assay: Test for herbicidal effect by upland field soil treatment (Test Example 2), Ec; conditions: 100 g/10 a active ingredient, examined at 21st day
Outline: (§2)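 Pre-emergence soil treatment: wettable powder diluted in water and sprayed on soil just sown with Ec and Se seeds, delivering 100 g active ingredient per 10 ares in 100 liters per 10 ares. Herbicidal effect was rated against a fixed scale 21 days later, after greenhouse growth.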

[5] = tested on: Echinochloa crus-galli (L.) Beauv. var. crusgalli (Ec); assay: Test for herbicidal effect by upland foliage treatment (Test Example 3); conditions: 100 g/10 a active ingredient, examined at 14th day
Outline: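 Scored 14 days post-spray against a graded standard: greenhouse-grown Ec, 2 weeks old in upland soil, received whole-foliage application of diluted wettable powder (100 g active ingredient per 10 ares, spray volume 100 L per 10 ares).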

[6] = tested on: Setaria viridis (L.) Beauv. (Se); assay: Test for herbicidal effect by upland field soil treatment (Test Example 2), Se; conditions: 100 g/10 a active ingredient, examined at 21st day
Outline: as §2

CC1(Cc2ccccc2)CC(S(=O)(=O)Cc2c(F)cccc2F)=NO1 (centres unmarked) [Compound 1-377]
Herbicidal effect to Eo [1]: 5 (A herbicidal effect or phytotoxicity of 90% or more)
Phytotoxicity to Or [2]: 0 (A herbicidal effect or phytotoxicity of 0% to less than 10%)
Herbicidal effect to Eo [3]: 5 (A herbicidal effect or phytotoxicity of 90% or more)

CC1(C(=O)O)CC(SCc2c(F)cccc2F)=NO1 (centres unmarked) [Compound 1-419]
Herbicidal effect to Eo [1]: 5 (A herbicidal effect or phytotoxicity of 90% or more)
Phytotoxicity to Or [2]: 1 (A herbicidal effect or phytotoxicity of 10% to less than 30%)
Herbicidal effect to Eo [3]: 5 (A herbicidal effect or phytotoxicity of 90% or more)

CCCCOC(=O)c1cccc(Cl)c1CS(=O)(=O)C1=NOC(C)(C)C1 [Compound 1-622]
Herbicidal effect to Eo [1]: 5 (A herbicidal effect or phytotoxicity of 90% or more)
Phytotoxicity to Or [2]: 1 (A herbicidal effect or phytotoxicity of 10% to less than 30%)
Herbicidal effect to Eo [3]: 5 (A herbicidal effect or phytotoxicity of 90% or more)
Herbicidal effect to Ec [4]: 5 (A herbicidal effect or phytotoxicity of 90% or more)

CCC1(C)CC(S(=O)(=O)CCCc2ccccc2)=NO1 (centres unmarked) [Compound 1-457]
Herbicidal effect to Eo [1]: 5 (A herbicidal effect or phytotoxicity of 90% or more)
Phytotoxicity to Or [2]: 1 (A herbicidal effect or phytotoxicity of 10% to less than 30%)
Herbicidal effect to Eo [3]: 5 (A herbicidal effect or phytotoxicity of 90% or more)

CC1(C)CC(S(=O)(=O)Cc2ccccc2C(=O)OCc2ccc(Cl)cc2)=NO1 [Compound 1-614]
Herbicidal effect to Eo [1]: 5 (A herbicidal effect or phytotoxicity of 90% or more)
Phytotoxicity to Or [2]: 0 (A herbicidal effect or phytotoxicity of 0% to less than 10%)
Herbicidal effect to Eo [3]: 5 (A herbicidal effect or phytotoxicity of 90% or more)

CC1(COCc2c(F)cccc2F)CC(S(=O)(=O)Cc2c(F)cccc2F)=NO1 (centres unmarked) [Compound 1-401]
Herbicidal effect to Eo [1]: 5 (A herbicidal effect or phytotoxicity of 90% or more)
Phytotoxicity to Or [2]: 0 (A herbicidal effect or phytotoxicity of 0% to less than 10%)
Herbicidal effect to Eo [3]: 5 (A herbicidal effect or phytotoxicity of 90% or more)

CC(C)COC(=O)c1cccc(Cl)c1CS(=O)(=O)C1=NOC(C)(C)C1 [Compound 1-624]
Herbicidal effect to Eo [1]: 5 (A herbicidal effect or phytotoxicity of 90% or more)
Phytotoxicity to Or [2]: 1 (A herbicidal effect or phytotoxicity of 10% to less than 30%)
Herbicidal effect to Eo [3]: 5 (A herbicidal effect or phytotoxicity of 90% or more)

CC1(C)CC(S(=O)(=O)Cc2c(Cl)cccc2C(=O)OCc2cccc(Cl)c2)=NO1 [Compound 1-627]
Herbicidal effect to Eo [1]: 5 (A herbicidal effect or phytotoxicity of 90% or more)
Phytotoxicity to Or [2]: 1 (A herbicidal effect or phytotoxicity of 10% to less than 30%)
Herbicidal effect to Eo [3]: 5 (A herbicidal effect or phytotoxicity of 90% or more)

CCCC1(C)CC([S+]([O-])Cc2c(F)cccc2F)=NO1 (centres unmarked) [Compound 1-365]
Herbicidal effect to Eo [1]: 5 (A herbicidal effect or phytotoxicity of 90% or more)
Phytotoxicity to Or [2]: 1 (A herbicidal effect or phytotoxicity of 10% to less than 30%)
Herbicidal effect to Eo [3]: 5 (A herbicidal effect or phytotoxicity of 90% or more)

CC1(C)CC(S(=O)(=O)Cc2ccccc2C(=O)OCc2ccccc2Cl)=NO1 [Compound 1-612]
Herbicidal effect to Eo [1]: 5 (A herbicidal effect or phytotoxicity of 90% or more)
Phytotoxicity to Or [2]: 0 (A herbicidal effect or phytotoxicity of 0% to less than 10%)
Herbicidal effect to Eo [3]: 5 (A herbicidal effect or phytotoxicity of 90% or more)

O=S(=O)(Cc1c(F)cccc1F)C1=NOC2CCCCCCC12 (centres unmarked) [Compound 1-519]
Herbicidal effect to Eo [1]: 5 (A herbicidal effect or phytotoxicity of 90% or more)
Phytotoxicity to Or [2]: 0 (A herbicidal effect or phytotoxicity of 0% to less than 10%)
Herbicidal effect to Eo [3]: 5 (A herbicidal effect or phytotoxicity of 90% or more)

COCCOc1ccccc1CS(=O)(=O)C1=NOC(C)(C)C1 [Compound 1-579]
Herbicidal effect to Eo [1]: 5 (A herbicidal effect or phytotoxicity of 90% or more)
Phytotoxicity to Or [2]: 1 (A herbicidal effect or phytotoxicity of 10% to less than 30%)
Herbicidal effect to Eo [3]: 5 (A herbicidal effect or phytotoxicity of 90% or more)

CCS(=O)(=O)C1=NOC(C)(C)C1 [Compound 2-2]
Herbicidal effect to Eo [1]: 5 (A herbicidal effect or phytotoxicity of 90% or more)
Phytotoxicity to Or [2]: 0 (A herbicidal effect or phytotoxicity of 0% to less than 10%)
Herbicidal effect to Eo [3]: 5 (A herbicidal effect or phytotoxicity of 90% or more)

CCC1(C)CC(S(=O)(=O)CCc2ccccc2)=NO1 (centres unmarked) [Compound 1-456]
Herbicidal effect to Eo [1]: 5 (A herbicidal effect or phytotoxicity of 90% or more)
Phytotoxicity to Or [2]: 0 (A herbicidal effect or phytotoxicity of 0% to less than 10%)
Herbicidal effect to Eo [3]: 5 (A herbicidal effect or phytotoxicity of 90% or more)

CC1(C)CC(S(=O)(=O)Cc2c(Cl)cccc2C(=O)OCc2ccccc2)=NO1 [Compound 1-625]
Herbicidal effect to Eo [1]: 5 (A herbicidal effect or phytotoxicity of 90% or more)
Phytotoxicity to Or [2]: 1 (A herbicidal effect or phytotoxicity of 10% to less than 30%)
Herbicidal effect to Eo [3]: 5 (A herbicidal effect or phytotoxicity of 90% or more)

CC1(C)CC(S(=O)(=O)Cc2c(Cl)cccc2C(=O)OCc2ccccc2Cl)=NO1 [Compound 1-626]
Herbicidal effect to Eo [1]: 5 (A herbicidal effect or phytotoxicity of 90% or more)
Phytotoxicity to Or [2]: 0 (A herbicidal effect or phytotoxicity of 0% to less than 10%)
Herbicidal effect to Eo [3]: 5 (A herbicidal effect or phytotoxicity of 90% or more)

CC(C)C1(C)CC([S+]([O-])Cc2c(F)cccc2F)=NO1 (centres unmarked) [Compound 1-367]
Herbicidal effect to Eo [1]: 5 (A herbicidal effect or phytotoxicity of 90% or more)
Phytotoxicity to Or [2]: 1 (A herbicidal effect or phytotoxicity of 10% to less than 30%)
Herbicidal effect to Eo [3]: 5 (A herbicidal effect or phytotoxicity of 90% or more)

Fc1cccc(F)c1CSC1=NOC2CCCCC12 (centres unmarked) [Compound 1-386]
Herbicidal effect to Eo [1]: 4 (A herbicidal effect or phytotoxicity of 70% to less than 90%)
Phytotoxicity to Or [2]: 0 (A herbicidal effect or phytotoxicity of 0% to less than 10%)
Herbicidal effect to Eo [3]: 4 (A herbicidal effect or phytotoxicity of 70% to less than 90%)

CC1(C)CC(S(=O)(=O)Cc2ccccc2C(=O)OCc2cccc(Cl)c2)=NO1 [Compound 1-613]
Herbicidal effect to Eo [1]: 5 (A herbicidal effect or phytotoxicity of 90% or more)
Phytotoxicity to Or [2]: 0 (A herbicidal effect or phytotoxicity of 0% to less than 10%)
Herbicidal effect to Eo [3]: 5 (A herbicidal effect or phytotoxicity of 90% or more)

CC1(C)CC(S(=O)(=O)Cc2ccccc2N)=NO1 [Compound 1-552]
Herbicidal effect to Eo [1]: 4 (A herbicidal effect or phytotoxicity of 70% to less than 90%)
Phytotoxicity to Or [2]: 1 (A herbicidal effect or phytotoxicity of 10% to less than 30%)
Herbicidal effect to Eo [3]: 4 (A herbicidal effect or phytotoxicity of 70% to less than 90%)

CC1(C)CC(S(=O)(=O)Cc2c(Cl)cccc2C(=O)OCc2ccc(Cl)cc2)=NO1 [Compound 1-628]
Herbicidal effect to Eo [1]: 5 (A herbicidal effect or phytotoxicity of 90% or more)
Phytotoxicity to Or [2]: 0 (A herbicidal effect or phytotoxicity of 0% to less than 10%)
Herbicidal effect to Eo [3]: 5 (A herbicidal effect or phytotoxicity of 90% or more)

CCC(C)OC(=O)c1cccc(Cl)c1CS(=O)(=O)C1=NOC(C)(C)C1 (centres unmarked) [Compound 1-623]
Herbicidal effect to Eo [1]: 5 (A herbicidal effect or phytotoxicity of 90% or more)
Phytotoxicity to Or [2]: 1 (A herbicidal effect or phytotoxicity of 10% to less than 30%)
Herbicidal effect to Eo [3]: 5 (A herbicidal effect or phytotoxicity of 90% or more)

CCC1(C)CC(S(=O)(=O)Cc2ccc(OC)cc2)=NO1 (centres unmarked) [Compound 1-230]
Herbicidal effect to Eo [1]: 5 (A herbicidal effect or phytotoxicity of 90% or more)
Phytotoxicity to Or [2]: 0 (A herbicidal effect or phytotoxicity of 0% to less than 10%)
Herbicidal effect to Eo [3]: 5 (A herbicidal effect or phytotoxicity of 90% or more)

CC1(C)CC(S(=O)(=O)Cc2ccccc2OCc2ccccc2)=NO1 [Compound 1-588]
Herbicidal effect to Eo [1]: 5 (A herbicidal effect or phytotoxicity of 90% or more)
Phytotoxicity to Or [2]: 1 (A herbicidal effect or phytotoxicity of 10% to less than 30%)
Herbicidal effect to Eo [3]: 5 (A herbicidal effect or phytotoxicity of 90% or more)

CC(C)COC(=O)c1ccccc1CS(=O)(=O)C1=NOC(C)(C)C1 [Compound 1-598]
Herbicidal effect to Eo [1]: 5 (A herbicidal effect or phytotoxicity of 90% or more)
Phytotoxicity to Or [2]: 1 (A herbicidal effect or phytotoxicity of 10% to less than 30%)
Herbicidal effect to Eo [3]: 5 (A herbicidal effect or phytotoxicity of 90% or more)

CCCOc1cccc(F)c1CS(=O)(=O)C1=NOC(C)(C)C1 [Compound 1-569]
Herbicidal effect to Ec [5]: 5 (A herbicidal effect or phytotoxicity of 90% or more)
Herbicidal effect to Eo [3]: 5 (A herbicidal effect or phytotoxicity of 90% or more)
Herbicidal effect to Se [6]: 5 (A herbicidal effect or phytotoxicity of 90% or more)
Herbicidal effect to Ec [4]: 5 (A herbicidal effect or phytotoxicity of 90% or more)
